The record followed here is US4894377A, “β-carbolines and their use as medicinal agents” (Schering Aktiengesellschaft, priority 1983, dated 1990).

Assay [1] concerns the target benzodiazepine receptors. The assay is described as follows: displacement of specific binding of 3H flunitrazepam in vitro (rat cerebral membrane suspension). The conditions noted are these: 50% displacement of specific binding of 3H flunitrazepam (1.0 nM, 0° C.), rat cerebrum.
For assay [2], the system named is convulsions induced by pentylenetetrazole (Pentazol). The assay is described as follows: protection from convulsions and death induced by pentylenetetrazole (Pentazol). The assay is classed as in vivo. The conditions noted are these: Mus musculus, ip; protects 50% of mice from convulsions and death; test compound intraperitoneal, 15-30 minutes before Pentazol. On the procedure: (§1) The compounds of this invention show, in a pharmacological test, anxiolytic, antiagressive, and anticonvulsive activities. Two testing systems were employed to examine the anticonvulsive effect. The elimination of convulsions induced, on the one hand, by pentylenetetrazole (Pentazol) and, on the other hand, by 6,7-dimethoxy-4-ethyl-β-carboline-3-carboxylic acid methyl ester (DMCM) was examined. Pentazol and DMCM, respectively, are administered 15-30 minutes after intraperitoneal administration of the test compound in an amount of 15 mg/kg as an aqueous solution (pH 7) intraperitoneally and, respectively, in an amount of 150 mg/kg as a hydrochloric acid solution (pH 2-3) subcutaneously. These quantities induce clonic and tonic convulsions leading to death in untreated animals.
(§2) The ED50 values indicated in the table were determined according to the method by Litchfield and Wilcoxon (1949) as the amount of antagonistically active compound required to protect 50% of the animals from convulsions and death.

The subject of assay [3] is convulsions induced by 6,7-dimethoxy-4-ethyl-β-carboline-3-carboxylic acid methyl ester (DMCM). The experiment in a line: protection from convulsions and death induced by DMCM. The assay is classed as in vivo. The conditions noted are these: Mus musculus, ip; protects 50% of mice from convulsions and death; test compound intraperitoneal, 15-30 minutes before DMCM. On the procedure:
as §1, §2

The test system of assay [4] is clonic convulsions at 111 dB. The experiment in a line: audiogenic seizure test. The assay is classed as in vivo. The conditions noted are these: Mus musculus, ip, 0.5 h; dose at which 40% of mice show no convulsions at 111 dB (14 kHz); DBA/2 mice, intraperitoneal, 30 minutes prior. On the procedure: The compounds of this invention also show a convulsion-relieving and/or convulsion-eliminating effect in the audiogenic seizure test. For this purpose, 18-21 day old male mice weighing 8-12 g (DBA/2 mice) receive intraperitoneally the compound to be tested as an ultrasound microsuspension in water/"Cremofor" EL (95:5) 30 minutes prior to testing. The animals are then exposed, in a soundproof wooden box (25×22×15 cm), to a sinusoidal sound of 14 kHz at 111 dB. The sound is generated immediately after transferring the animal into the box. Occurrence of clonic convulsions is recorded for 30 seconds. The ED50 value in the table indicates the dose at which 40% of the mice show no convulsions at 111 dB (80% of the control mice show convulsions at 111 dB).

Values after ≈ are worked out from the molar mass of the structure shown.

As a reminder, the ED50 is the midpoint of the dose-response relation. High values mean weaker potency, low ones greater potency.

In the case of `CCOC(=O)c1ncc2[nH]c3cccc(OCc4cccc(F)c4)c3c2c1COC` [Substituent 3-fluoro, 5-(3-fluorobenzyloxy)-4-methoxymethyl-β-carboline-3-carboxylic acid ethyl ester], the “IC50 (in vitro)” value in assay [1] was found to be 0.3 ng/mL (≈ 0.735 nM). The values for the ED50 in assay [2], in assay [3] and in assay [4] were 12 mg/kg, 0.3 mg/kg and 0.05 mg/kg, respectively.

In the case of `CCOC(=O)c1ncc2[nH]c3cccc(OCc4cccc(OC)c4)c3c2c1COC` [Substituent 3-methoxy, 5-(3-methoxybenzyloxy)-4-methoxymethyl-β-carboline-3-carboxylic acid ethyl ester], the “IC50 (in vitro)” value in assay [1] is 0.5 ng/mL (≈ 1.19 nM). Also, the ED50 in assay [2] was greater than 100 mg/kg.

Take `CCOC(=O)c1ncc2[nH]c3cccc(OCc4cccc(C(F)(F)F)c4)c3c2c1COC` [3-trifluoromethyl, 5-(3-trifluoromethylbenzyloxy)-4-methoxymethyl-β-carboline-3-carboxylic acid ethyl ester]: the “IC50 (in vitro)” value in assay [1] was found to be 1.4 ng/mL (≈ 3.05 nM). Besides, in assay [2], the ED50 worked out at 12 mg/kg.

Turning to `CCOC(=O)c1ncc2[nH]c3cccc(OC(C)c4ccccc4)c3c2c1COC` (stereo not drawn) [α-methyl], the “IC50 (in vitro)” value in assay [1] turned out to be 1.1 ng/mL (≈ 2.72 nM). In addition, the ED50 in assay [2] turned out to be 3 mg/kg; in assay [3], 0.1 mg/kg; in assay [4], 0.01 mg/kg.

`CCOC(=O)c1ncc2[nH]c3cccc(OCc4ccc(C)cc4)c3c2c1COC` [Substituent 4-methyl, 5-(4-methylbenzyloxy)-4-methoxymethyl-β-carboline-3-carboxylic acid ethyl ester]: in assay [1], the “IC50 (in vitro)” value is 0.9 ng/mL (≈ 2.23 nM). For the same compound, the ED50 in assay [2] stood at 30 mg/kg.

Consider `CCOC(=O)c1ncc2[nH]c3cccc(OCc4ccccc4F)c3c2c1COC` [Substituent 2-fluoro, 5-(2-fluorobenzyloxy)-4-methoxymethyl-β-carboline-3-carboxylic acid ethyl ester], for which the “IC50 (in vitro)” value in assay [1] came out at 0.3 ng/mL (≈ 0.735 nM). For the same compound, the ED50 came out at 13 mg/kg in assay [2], 0.4 mg/kg in assay [3] and 0.05 mg/kg in assay [4].

On to `CCOC(=O)c1ncc2[nH]c3cccc(OCc4ccc(Cl)cc4)c3c2c1COC` [Substituent 4-chloro, 5-(4-chlorobenzyloxy)-4-methoxymethyl-β-carboline-3-carboxylic acid ethyl ester], for which the “IC50 (in vitro)” value in assay [1] was 0.9 ng/mL (≈ 2.12 nM). The compound further gave an ED50 in assay [2] greater than 30 mg/kg.

For `CCOC(=O)c1ncc2[nH]c3cccc(OCc4ccc(C)c(C)c4)c3c2c1COC` [3,4-dimethyl, 5-(3,4-dimethylbenzyloxy)-4-methoxymethyl-β-carboline-3-carboxylic acid ethyl ester], the “IC50 (in vitro)” value in assay [1] was 1.7 ng/mL (≈ 4.06 nM). The same compound gave an ED50 in assay [2] of 30 mg/kg.

As to `CCOC(=O)c1ncc2[nH]c3cccc(OCc4ccc(Cl)c(Cl)c4)c3c2c1COC` [3,4-dichloro, 5-(3,4-dichlorobenzyloxy)-4-methoxymethyl-β-carboline-3-carboxylic acid ethyl ester], in assay [1], the “IC50 (in vitro)” value came out at 2.1 ng/mL (≈ 4.57 nM). Also, the figures for the ED50 in assay [2] and in assay [3] were 6 mg/kg and 2.2 mg/kg, respectively.

For the compound `CCOC(=O)c1ncc2[nH]c3cccc(OCc4cccc(Cl)c4)c3c2c1COC` [Substituent 3-chloro, 5-(3-chlorobenzyloxy)-4-methoxymethyl-β-carboline-3-carboxylic acid ethyl ester], the “IC50 (in vitro)” value in assay [1] is 1.4 ng/mL (≈ 3.3 nM). For the same compound, the ED50 in assay [2] was 0.9 mg/kg; in assay [3] it was 0.3 mg/kg; in assay [4], 0.08 mg/kg.

As to `CCOC(=O)c1ncc2[nH]c3cccc(OCCc4ccccc4)c3c2c1COC`, the “IC50 (in vitro)” value in assay [1] is 0.8 ng/mL (≈ 1.98 nM). The compound further yielded an ED50 in assay [2] of 40 mg/kg.

In the case of `CCOC(=O)c1ncc2[nH]c3cccc(OCc4ccc([N+](=O)[O-])cc4)c3c2c1COC` [Substituent 4-nitro, 5-(4-nitrobenzyloxy)-4-methoxymethyl-β-carboline-3-carboxylic acid ethyl ester], in assay [1], the “IC50 (in vitro)” value is 0.2 ng/mL (≈ 0.459 nM). The same compound had an ED50 in assay [2] greater than 50 mg/kg.

For `CCOC(=O)c1ncc2[nH]c3cccc(OCc4ccccc4)c3c2c1COC`, the “IC50 (in vitro)” value in assay [1] came to 2 ng/mL (≈ 5.12 nM). Also, the ED50 in assay [2] stood at 15 mg/kg; in assay [3], 0.6 mg/kg; in assay [4] it was 0.5 mg/kg.

On to `CCOC(=O)c1ncc2[nH]c3cccc(OCc4ccc(F)cc4)c3c2c1COC` [Substituent 4-fluoro, 5-(4-fluorobenzyloxy)-4-methoxymethyl-β-carboline-3-carboxylic acid ethyl ester], for which the “IC50 (in vitro)” value in assay [1] turned out to be 0.4 ng/mL (≈ 0.979 nM). The ED50 in assay [2] is 30 mg/kg; in assay [3], 0.1 mg/kg; in assay [4] it was 0.2 mg/kg.

As for `CCOC(=O)c1ncc2[nH]c3cccc(OC(C)c4cccc(Cl)c4)c3c2c1COC` (stereo not drawn) [α-methyl, 3-chloro, 5-[1-(3-chlorophenyl)ethoxy]-4-methoxymethyl-β-carboline-3-carboxylic acid ethyl ester], the “IC50 (in vitro)” value in assay [1] stood at 4.3 ng/mL (≈ 9.8 nM). The ED50 in assay [2] amounted to 2 mg/kg.

With `CCOC(=O)c1ncc2[nH]c3cccc(OCc4cccc(Br)c4)c3c2c1COC` [Substituent 3-bromo, 5-(3-bromobenzyloxy)-4-methoxymethyl-β-carboline-3-carboxylic acid ethyl ester], the “IC50 (in vitro)” value in assay [1] was 0.8 ng/mL (≈ 1.7 nM). For the same compound, the 50% effect level in assay [2] (ED50) was put at a dose of 6 mg/kg.

Regarding `CCOC(=O)c1ncc2[nH]c3cccc(OCCCc4ccccc4)c3c2c1COC`, the “IC50 (in vitro)” value in assay [1] came to 1.9 ng/mL (≈ 4.54 nM). Also, the ED50 worked out at 30 mg/kg in assay [2] and 5.5 mg/kg in assay [3].
